Experimental data published in patent US20110112145A1, “Salts Of Methyl 2-((R))-(3-Chlorophenyl)((R)-1-((S)-2-(Methylamino)-3((R)-tetrahydro-2H-Pyran-3-YL)Propylcarbamoyl)Piperidin-3-YL)Methoxy)Ethylcarbamate” (priority 2008, published 2011).

Experiments:
[1] = Oral bioavailability in Beagle dogs; assay type: in vivo, male Beagle dogs; conditions: Dog
Experimental: Oral pharmacokinetic data in male Beagle dogs was obtained for a solution formulation of Compound D and capsule formulations of Compound A-form I, Compound B-form I, and Compound C-form I. Compound D was administered by oral gavage as a clear, colorless solution in water containing 2% DMSO (final pH=3.5), which was filtered, using a 0.22 μm MILLEX-GV filter, prior to administration. The above noted Compounds A, B, and C were each administered at a dose of 5 mg/kg in gelatin capsules (1.37 mL). Blood (50 μL) was sampled at the following time intervals: 0, 20, 40, 60, 120, 180, 240, 360, 480, 600, and 1440 min.
(§1) The concentration of each compound was quantified by LC/MS/MS analysis of an aliquot (25 μL blood+25 μL water) of these samples and the overall blood exposure reported as the Dose-Normalized Area Under the Curve (DNAUC) from a concentration versus time plot and expressed in the units kilogram hours per liter (kg·h/L). All oral bioavailabilities were calculated by dividing the DNAUC from an oral segment by the DNAUC from an i.v. segment and multiplying by 100.

[2] = Oral bioavailability in Sprague-Dawley rats; assay type: in vivo, male Sprague-Dawley rats; conditions: for DNAUC (Dose-Normalized Area Under the Curve, blood) / Oral Bioavailability (%): Rat; for Oral Bioavailability (%): oral DNAUC / i.v. DNAUC x 100
Experimental: Oral pharmacokinetic data in male Sprague-Dawley rats was obtained for a solution formulation of Compound D and a suspension formulation of micronized Compound E. Compound D was administered by oral gavage as a clear, colorless solution in a formulation with 0.5% methylcellulose in water at a dose of 10 mg/kg (5 mL of dose solution per kg). Blood was sampled at the following time intervals: 0, 5, 15, 30, 60, 120, 180, 240, 360, 480, and 1440 min. Compound E was administered as a suspension by gastric bolus in a formulation with 1% methylcellulose in water at a dose of 5 mg/kg (10 mL of dose solution per kg). Blood (50 μL) was sampled at the following time intervals: 0, 20, 40, 60, 120, 180, 240, 360, 480, 720, 960, 1200, and 1440 min.
as §1

[3] = oral, gelatin capsule, 5 mg/kg, form I of each compound
[4] = oral, gelatin capsule, 5 mg/kg, form I of each compound, oral DNAUC / i.v. DNAUC x 100
[5] = oral gavage, solution in 0.5% methylcellulose in water, 10 mg/kg
[6] = gastric bolus, suspension of micronized compound in 1% methylcellulose in water, 5 mg/kg

For `CN[C@H](CNC(=O)N1CCC[C@@H]([C@@H](OCCNC(=O)OC)c2cccc(Cl)c2)C1)C[C@H]1CCCOC1.CN[C@H](CNC(=O)N1CCC[C@@H]([C@@H](OCCNC(=O)OC)c2cccc(Cl)c2)C1)C[C@H]1CCCOC1.Cc1ccc(C(=O)O[C@@H](C(=O)O)[C@@H](OC(=O)c2ccc(C)cc2)C(=O)O)cc1` [Compound A], the “DNAUC (Dose-Normalized Area Under the Curve, blood)” value [1, 3] was 0.38 kg·h/L and the “Oral Bioavailability (%)” value [1, 4] was 35%.
With `CC(=O)N[C@@H](Cc1ccccc1)C(=O)O.CN[C@H](CNC(=O)N1CCC[C@@H]([C@@H](OCCNC(=O)OC)c2cccc(Cl)c2)C1)C[C@H]1CCCOC1` [Compound B] the “DNAUC (Dose-Normalized Area Under the Curve, blood)” value [1, 3] was 0.40 kg·h/L and the “Oral Bioavailability (%)” value [1, 4] was 37%.
With `CN[C@H](CNC(=O)N1CCC[C@@H]([C@@H](OCCNC(=O)OC)c2cccc(Cl)c2)C1)C[C@H]1CCCOC1.O=C(O)C(=O)O` [Compound C] the “DNAUC (Dose-Normalized Area Under the Curve, blood)” value [1, 3] was 0.64 kg·h/L and the “Oral Bioavailability (%)” value [1, 4] was 59%.
With `CN[C@H](CNC(=O)N1CCC[C@@H]([C@@H](OCCNC(=O)OC)c2cccc(Cl)c2)C1)C[C@H]1CCCOC1.O=C(O)/C=C/C(=O)O` [Compound D, methyl 2-((R)-(3-chlorophenyl)((R)-1-((S)-2-(methylamino)-3-((R)-tetrahydro-2H-pyran-3-yl)propylcarbamoyl)piperidin-3-yl)methoxy)ethylcarbamate fumaric acid] the “DNAUC (Dose-Normalized Area Under the Curve, blood)” value ([1]; oral gavage, solution in water containing 2% DMSO (final pH=3.5), dose not given) was 0.46 kg·h/L, the bioavailability ([1]; male, Beagle, whole blood, oral gavage, solution in water containing 2% DMSO (final pH=3.5), dose not given, oral DNAUC / i.v. DNAUC x 100) was 43% and the “DNAUC (Dose-Normalized Area Under the Curve, blood)” value [2, 5] was 0.048 kg·h/L. For the same compound, the “Oral Bioavailability (%)” value [2, 5] was 37%.
In the case of `CN[C@H](CNC(=O)N1CCC[C@@H]([C@@H](OCCNC(=O)OC)c2cccc(Cl)c2)C1)C[C@H]1CCCOC1.CN[C@H](CNC(=O)N1CCC[C@@H]([C@@H](OCCNC(=O)OC)c2cccc(Cl)c2)C1)C[C@H]1CCCOC1.O=C(O)c1cc2ccccc2c(Cc2c(O)c(C(=O)O)cc3ccccc23)c1O` [Compound E, 2:1 pamoate salt of methyl 2-((R)-(3-chlorophenyl)((R)-1-((S)-2-(methylamino)-3-((R)-tetrahydro-2H-pyran-3-yl)propylcarbamoyl)piperidin-3-yl)methoxy)ethylcarbamate], the “DNAUC (Dose-Normalized Area Under the Curve, blood)” value [2, 6] is reported as 0.0067 kg·h/L, the “Oral Bioavailability (%)” value [2, 6] is reported as 5% and the “in vivo oral bioavailability” value ([2]; statement in the background section, species not given) is reported as “low”.
